Here are results for 25 molecules from patent US9133104B2 (Chroma Therapeutics Ltd., priority 2005, dated 2015).

The structures appear in SMILES notation.

The target in this test is T1, histone deacetylase activity (HeLa nuclear extract).
T1 construct: Histone deacetylase activity from crude nuclear extract derived from HeLa cells was used for screening
Kind of test: HDAC fluorescent activity assay (Biomol Fluor de Lys), HeLa nuclear extract. Format: biochemical. The settings on record: Fluor de Lys substrate, IC50 range. The procedure: The ability of compounds to inhibit histone deacetylase activities was measured using the commercially available HDAC fluorescent activity assay from Biomol. In brief, the Fluor de Lys™ substrate, a lysine with an epsilon-amino acetylation, is incubated with the source of histone deacetylase activity (HeLa nuclear extract) in the presence or absence of inhibitor. Deacetylation of the substrate sensitises the substrate to Fluor de Lys™ developer, which generates a fluorophore. Thus, incubation of the substrate with a source of HDAC activity results in an increase in signal that is diminished in the presence of an HDAC inhibitor.
Data are expressed as a percentage of the control, measured in the absence of inhibitor, with background signal being subtracted from all samples, as follows:— % activity=((S^i−B)/(S^o−B))×100 where S^i is the signal in the presence of substrate, enzyme and inhibitor, S^o is the signal in the presence of substrate, enzyme and the vehicle in which the inhibitor is dissolved, and B is the background signal measured in the absence of enzyme.
IC50 values were determined by non-linear regression analysis, after fitting the results of eight data points to the equation for sigmoidal dose response with variable slope (% activity against log concentration of compound), using Graphpad Prism software.
Histone deacetylase activity from crude nuclear extract derived from HeLa cells was used for screening. The preparation, purchased from 4C (Seneffe, Belgium), was prepared from HeLa cells harvested whilst in exponential growth phase. The nuclear extract is prepared according to Dignam JD1983 Nucl. Acid. Res. 11, 1475-1489, snap frozen in liquid nitrogen and stored at −80° C. The final buffer composition was 20 mM Hepes, 100 mM KCl, 0.2 mM EDTA, 0.5 mM DTT, 0.2 mM PMSF and 20% (v/v) glycerol.

Turning to `CC(C)C[C@H](NCc1cccc(NC(=O)CCCCCCC(=O)NO)c1)C(=O)O` [Compound 38, (S)-2-[3-(7-Hydroxycarbamoyl-heptanoylamino)-benzylamino]-4-methyl-pentanoic acid], the IC50 (as a rule, the concentration that gives 50% inhibition) was in the range of 0.101 to 1 µM.

In turn, `CC(C)C[C@H](NC(=O)c1cccc(NC(=O)CCCCCCC(=O)NO)c1)C(=O)O` [Compound 63, (S)-2-[3-(7-Hydroxycarbamoyl-heptanoylamino)-benzoylamino]-4-methyl-pentanoic acid] had an IC50 of 0.101 to 1 µM. Regarding `O=C(CCCCCCC(=O)Nc1cccc(CCN[C@H](C(=O)O)c2ccccc2)c1)NO` [Compound 72, (S)-{2-[3-(7-Hydroxycarbamoyl-heptanoylamino)-phenyl]-ethylamino}-phenyl-acetic acid], the IC50 was less than 0.1 µM.

Molecule `O=C(CCCCCCC(=O)Nc1cccc(OCCN[C@@H](Cc2ccccc2)C(=O)O)c1)NO` [Compound 74, (S)-2-{2-[3-(7-Hydroxycarbamoyl-heptanoylamino)-phenoxy]-ethylamino}-3-phenyl-propionic acid] displayed an IC50 of 0.101 to 1 µM. To `O=C(CCCCCCC(=O)Nc1cccc(OCCCN[C@@H](Cc2ccccc2)C(=O)O)c1)NO` [Compound 76, (S)-2-{3-[3-(7-Hydroxycarbamoyl-heptanoylamino)-phenoxy]-propylamino}-3-phenyl-propionic acid] belongs less than 0.1 µM; to `O=C(CCCCCCC(=O)Nc1cccc(CNC(=O)N[C@H](C(=O)O)c2ccccc2)c1)NO` [Compound 80, (S)-{3-[3-(7-Hydroxycarbamoyl-heptanoylamino)-benzyl]-ureido}-phenyl-acetic acid], 0.101 to 1 µM; to `O=C(CCCCCCC(=O)Nc1cccc(CNC(=O)N[C@@H](Cc2ccccc2)C(=O)O)c1)NO` [Compound 82, (S)-2-{3-[3-(7-Hydroxycarbamoyl-heptanoylamino)-benzyl]-ureido}-3-phenyl-propionic acid], 0.101 to 1 µM. The molecule `O=C(CCCCCCC(=O)Nc1ccc(CN[C@@H](C(=O)O)c2ccccc2)cc1)NO` [Compound 84, (R)-[4-(7-Hydroxycarbamoyl-heptanoylamino)-benzylamino]-phenyl-acetic acid] registered an IC50 of 0.101 to 1 µM. In turn, `O=C(CCCCCCC(=O)Nc1ccc(CN[C@H](C(=O)O)C2CCCCC2)cc1)NO` [Compound 87, (S)-Cyclohexyl-[4-(7-hydroxycarbamoyl-heptanoylamino)-benzylamino]-acetic acid] displayed an IC50 of less than 0.1 µM. The value for `CC(C)(C)OC[C@H](NCc1ccc(NC(=O)CCCCCCC(=O)NO)cc1)C(=O)O` [Compound 90, (S)-3-tert-Butoxy-2-[4-(7-hydroxycarbamoyl-heptanoylamino)-benzylamino]-propionic acid] was 0.101 to 1 µM; that for `O=C(CCCCCCC(=O)Nc1cccc(OCCCC(=O)N[C@H](C(=O)O)c2ccccc2)c1)NO` [Compound 93, (S)-{4-[3-(7-Hydroxycarbamoyl-heptanoylamino)-phenoxy]-butyrylamino}-phenyl-acetic acid] was less than 0.1 µM. `O=C(CCCCCCC(=O)Nc1cccc(COC(=O)N[C@@H](Cc2ccccc2)C(=O)O)c1)NO` [Compound 95, (S)-2-[3-(7-Hydroxycarbamoyl-heptanoylamino)-benzyloxycarbonylamino]3-phenyl-propionic acid] had an IC50 of 0.101 to 1 µM. The molecule `CC(C)C[C@H](NC(=O)[C@@H]1Cc2ccc(NC(=O)CCCCCCC(=O)NO)cc2CN1)C(=O)O` [Compound 97, (S)-2-{[(S)-7-(7-Hydroxycarbamoyl-heptanoylamino)-1,2,3,4-tetrahydro-isoquinoline-3-carbonyl]-amino}-4-methyl-pentanoic acid] displayed an IC50 of 0.101 to 1 µM. On to `CC(C)C[C@H](NC(=O)c1ccc(NC(=O)CCCCCCC(=O)NO)cc1)C(=O)O` [Compound 99, (S)-2-[4-(7-Hydroxycarbamoyl-heptanoylamino)-benzoylamino]-4-methyl-pentanoic acid], for which the IC50 was more than 1 µM. In the case of `O=C(CCCCCCNC(=O)c1cc2cc(CCC(=O)N[C@@H](Cc3ccccc3)C(=O)O)ccc2[nH]1)NO` [Compound 101, (S)-2-{3-[2-(6-Hydroxycarbamoyl-hexylcarbamoyl)-1H-indol-5-yl]-propionylamino}-3-phenyl-propionic acid], the IC50 is less than 0.1 µM. The molecule `O=C(Cc1ccc(OCCCC(=O)N[C@@H](Cc2ccccc2)C(=O)O)cc1)Nc1ccc2sc(C(=O)NO)cc2c1` [Compound 103, (S)-2-(4-{4-[(2-Hydroxycarbamoyl-benzo[b]thiophen-5-ylcarbamoyl)-methyl]-phenoxy}-butyrylamino)-3-phenyl-propionic acid] returned a concentration for half-maximal inhibition (IC50) of less than 0.1 µM. `O=C(NO)c1cc2ccc(CNCc3ccc(CN[C@@H](Cc4ccccc4)C(=O)O)cc3)cc2s1` [Compound 105, (S)-2-(4-{[(2-Hydroxycarbamoyl-benzo[b]thiophen-6-ylmethyl)-amino]-methyl}-benzylamino)-3-phenyl-propionic] gave an IC50 of less than 0.1 µM.

For the molecule `O=C(NO)c1cc2ccc(CNCc3ccc(CN4CCC[C@H]4C(=O)O)cc3)cc2s1` [Compound 112, (S)-1-(4-{[(2-Hydroxycarbamoyl-benzo[b]thiophen-6-ylmethyl)-amino]-methyl}-benzyl)-pyrrolidine-2-carboxylic acid], the IC50 is 0.101 to 1 µM. In turn, `CC(C)(C)SC[C@H](NCc1ccc(CNCc2ccc3cc(C(=O)NO)sc3c2)cc1)C(=O)O` [Compound 114, (R)-3-tert-Butylsulfanyl-2-(4-{[(2-hydroxycarbamoyl-benzo[b]thiophen-6-ylmethyl)-amino]-methyl}-benzylamino)-propionic acid] had an IC50 of 0.101 to 1 µM.

`O=C(NO)c1cc2ccc(CNCc3ccc(CN[C@H](C(=O)O)C4CCCCC4)cc3)cc2s1` [Compound 117, (S)-Cyclohexyl-(4-{[(2-hydroxycarbamoyl-benzo[b]thiophen-6-ylmethyl)-amino]-methyl}-benzylamino)-acetic acid] displayed an IC50 of less than 0.1 µM. The value for `C[C@H](NCc1ccc(CNCc2ccc3cc(C(=O)NO)sc3c2)cc1)C(=O)O` [Compound 119, (S)-2-(4-{[(2-Hydroxycarbamoyl-benzo[b]thiophen-6-ylmethyl)-amino]-methyl}-benzylamino)-propionic acid] was less than 0.1 µM; that for `O=C(O)CNCc1ccc(CNCc2ccc3cc(C(=O)NO)sc3c2)cc1` [Compound 121, (4-{[(2-Hydroxycarbamoyl-benzo[b]thiophen-6-ylmethyl)-amino]-methyl}-benzylamino)-acetic acid] was less than 0.1 µM; that for `CC(C)C[C@H](NCc1ccc(CNCc2ccc3cc(C(=O)NO)sc3c2)cc1)C(=O)O` [Compound 123, (S)-2-(4-{[(2-Hydroxycarbamoyl-benzo[b]thiophen-6-ylmethyl)-amino]-methyl}-benzylamino)-4-methyl-pentanoic acid] was less than 0.1 µM. For the molecule `O=C(NO)c1cc2ccc(CNCc3ccc(CN[C@H](C(=O)O)c4ccccc4)cc3)cc2s1` [Compound 125, (S)-(4-{[(2-Hydroxycarbamoyl-benzo[b]thiophen-6-ylmethyl)-amino]-methyl}-benzylamino)-phenyl-acetic acid], the IC50 is less than 0.1 µM.

In the case of `O=C(NO)c1cc2ccc(CNCC3CCC(CN[C@H](C(=O)O)c4ccccc4)CC3)cc2s1` (stereo partly drawn) [Compound 127, (S)-[(4-{[(2-Hydroxycarbamoyl-benzo[b]thiophen-6-ylmethyl)-amino]-methyl}-cyclohexylmethyl)-amino]-phenyl-acetic acid], the IC50 lay within 0.101 to 1 µM.
